Columns and labels:
[1] = target: T1, human recombinant 5-HT2C receptor (Homo sapiens, UniProt P28335); test: Binding affinity for serotonin 5-HT2C receptor ([3H]Mesulergine); settings: CHO-K1 membranes, 1.3 nM [3H]Mesulergine
T1 construct: purchased PerkinElmer
T1 sequence (P28335 33-458): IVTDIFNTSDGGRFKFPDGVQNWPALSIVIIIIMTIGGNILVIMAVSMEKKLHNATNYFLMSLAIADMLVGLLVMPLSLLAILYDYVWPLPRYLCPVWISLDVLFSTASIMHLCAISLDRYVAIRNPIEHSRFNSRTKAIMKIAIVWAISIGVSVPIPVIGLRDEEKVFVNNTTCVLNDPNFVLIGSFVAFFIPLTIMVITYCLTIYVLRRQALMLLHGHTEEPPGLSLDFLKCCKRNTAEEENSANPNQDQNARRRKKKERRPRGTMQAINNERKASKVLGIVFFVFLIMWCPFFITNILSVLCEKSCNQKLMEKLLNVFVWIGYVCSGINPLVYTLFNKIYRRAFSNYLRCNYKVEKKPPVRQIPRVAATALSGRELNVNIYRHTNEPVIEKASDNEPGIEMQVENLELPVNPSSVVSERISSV
How it was run: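 Competition binding with [3H]mesulergine; nonspecific binding defined with 100 uM mianserin. Incubation 60 min at 27, stopped by rapid filtration onto glass fiber filters presoaked in 0.5% PEI.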

mice = test: Anti-depressants activity in forced swimming test; format: in vivo; settings: 100 mg/kg po, 60 min before testing, hydrochloride
Protocol: To evaluate the anti-depressants activity of the compounds, the inhibitory effects on immobility in forced swimming test in mice were measured according to the methods described by Porsolt et al. [Porsolt R D et al., Eur J Pharmacol. 1978, 51, 291-294].
Each mouse was placed in a 25-cm glass cylinder (10 cm diameter) containing 15 cm of water maintained at 22±1 , and was forced to swim for 10 min. Twenty-four hours later, the mouse was replaced into the cylinder and the total duration of immobility was recorded during the last 5 min of the 6-min testing period. Mice are judged immobile when they float in an upright position and make only small movements to keep their head above water. Test drugs were suspended in 3% Tween 80 solution, and administered orally (po) 60 min before the testing.

[2] = target: T2, human serotonin transporter (Homo sapiens, UniProt P31645); test: Binding affinity for serotonin transporter ([3H]Imipramine); settings: HEK-293 membranes, 2 nM [3H]Imipramine
T2 construct: purchased PerkinElmer; host or cells: HEK-293
How it was run: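 Membranes from HEK-293 cells expressing human serotonin transporter (5 ug/well) incubated with compound and 2 nM [3H]imipramine in 50 mM Tris-HCl pH 7.4, 120 mM NaCl, 5 mM KCl, 30 min at 27. Bound ligand separated by filtration onto glass fiber filters presoaked in 0.5% PEI, washed with ice-cold Tris-HCl/0.9% NaCl.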

[3] = target: T3, human recombinant serotonin 5-HT2A receptor (Homo sapiens, UniProt P28223); test: Binding affinity for serotonin 5-HT2A receptor ([3H]Ketanserin); settings: CHO-K1 expressed receptor, 1 nM [3H]Ketanserin
T3 construct: purchased PerkinElmer Life and Analytical Sciences, USA; host or cells: CHO-K1
How it was run: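 Membranes from CHO-K1 cells expressing recombinant receptor (5 ug/well) incubated 60 min at 27 with 1 nM [3H]ketanserin in 50 mM Tris-HCl pH 7.4, 4 mM CaCl2, 0.1% ascorbic acid; mianserin 20 uM defined nonspecific binding. Filtration and counting; IC50 by nonlinear regression over 7-8 concentrations in duplicate.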

T2 sequence (P31645 whole entry): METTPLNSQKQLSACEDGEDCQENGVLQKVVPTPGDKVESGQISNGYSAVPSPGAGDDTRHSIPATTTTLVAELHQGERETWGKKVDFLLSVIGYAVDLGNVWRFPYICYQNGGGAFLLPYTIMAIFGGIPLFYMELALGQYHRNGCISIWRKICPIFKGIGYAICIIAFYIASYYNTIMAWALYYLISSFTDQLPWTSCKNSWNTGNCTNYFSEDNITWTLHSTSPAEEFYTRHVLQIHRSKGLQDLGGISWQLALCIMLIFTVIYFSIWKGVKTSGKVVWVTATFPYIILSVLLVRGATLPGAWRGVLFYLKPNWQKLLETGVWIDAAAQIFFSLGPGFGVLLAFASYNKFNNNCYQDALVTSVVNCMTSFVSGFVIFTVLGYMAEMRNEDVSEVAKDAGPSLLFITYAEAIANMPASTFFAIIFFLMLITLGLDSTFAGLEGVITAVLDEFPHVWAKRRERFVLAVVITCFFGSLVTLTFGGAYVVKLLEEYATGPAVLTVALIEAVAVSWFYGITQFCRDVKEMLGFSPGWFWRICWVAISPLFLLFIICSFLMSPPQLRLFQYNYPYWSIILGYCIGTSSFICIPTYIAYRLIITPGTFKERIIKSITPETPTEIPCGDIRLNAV
T3 sequence (P28223 whole entry): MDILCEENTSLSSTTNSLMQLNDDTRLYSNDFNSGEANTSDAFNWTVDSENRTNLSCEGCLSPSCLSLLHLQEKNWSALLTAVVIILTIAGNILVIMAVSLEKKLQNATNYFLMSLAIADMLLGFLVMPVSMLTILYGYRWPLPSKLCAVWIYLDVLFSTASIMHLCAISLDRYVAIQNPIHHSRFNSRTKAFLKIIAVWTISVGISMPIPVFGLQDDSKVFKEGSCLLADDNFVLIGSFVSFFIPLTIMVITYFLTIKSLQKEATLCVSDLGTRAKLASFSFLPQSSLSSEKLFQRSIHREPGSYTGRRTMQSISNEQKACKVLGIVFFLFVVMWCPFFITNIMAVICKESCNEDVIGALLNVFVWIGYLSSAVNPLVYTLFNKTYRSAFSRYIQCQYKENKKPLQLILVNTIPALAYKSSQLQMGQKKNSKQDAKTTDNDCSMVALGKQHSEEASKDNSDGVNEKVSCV

Structure (SMILES)	IC50 [1] [nM]	immobility in forced swimming test (mice) [%]	IC50 [2] [nM]	IC50 [3] [nM]
Cc1[nH]c(-c2ccccc2)cc1C(=O)NCCN1CCN(c2cccc(Cl)c2Cl)CC1.Cl [Example 48, N-(2-(4-(2,3-dichlorophenyl)piperazin-1-yl)ethyl)-2-methyl-5-phenyl-1H-pyrrole-3-carboxamide hydrochloride]	156	26.1	57	175
Cc1c(C(=O)NCCCN2CCN(c3cc(Cl)ccc3Cl)CC2)cc(-c2ccccc2)n1C [Example 156, N-(3-(4-(2,5-Ddichlorophenyl)piperazin-1-yl)propyl)-1,2-dimethyl-5-phenyl-1H-pyrrole-3-carboxamide]	806		134	585
COc1cccc(N2CCN(CCCNC(=O)c3cc(-c4ccccc4)n(C)c3C)CC2)c1OC [Example 158, N-(3-(4-(2,3-dimethoxyphenyl)piperazin-1-yl)propyl)-1,2-dimethyl-5-phenyl-1H-pyrrole-3-carboxamide]	782		1260	666
CCCn1c(-c2ccccc2)cc(C(=O)NCCCN2CCN(c3cccc(OC)c3OC)CC2)c1C [Example 159, N-(3-(4-(2,3-dimethoxyphenyl)piperazin-1-yl)propyl)-2-methyl-5-phenyl-1-propyl-1H-pyrrole-3-carboxamide]	977		1980	874
Cc1cc(C(=O)NCCCN2CCN(c3cccc(Cl)c3Cl)CC2)c(C)n1-c1ccccc1 [Example 170, N-(3-(4-(2,3-dichlorophenyl)piperazin-1-yl)propyl)-2,5-dimethyl-1-phenyl-1H-pyrrole-3-carboxamide]	98		20	132
Cc1c(Cl)cccc1N1CCN(CCCNC(=O)c2cc(C)n(-c3ccccc3)c2C)CC1 [Example 176, N-(3-(4-(3-chloro-2-methylphenyl)piperazin-1-yl)propyl)-2,5-dimethyl-1-phenyl-1H-pyrrole-3-carboxamide]	127		15	170

Reference: patent US8895558B2, “Arylpiperazine-containing pyrrole 3-carboxamide derivatives for treating depressive disorders” (Green Cross Corporation, priority 2008, dated 2014)
